Calls of active or inactive are those of the source. How the calls were made is not given here.

The values that follow come from PubChem BioAssay AID1259411 (Chemical Carcinogenesis Research Information System (CCRIS), 2018).

For the data set, the system named is rodent carcinogenicity bioassays, tumor incidence. Description: CCRIS carcinogenicity studies. In a few lines: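 Archive of carcinogenicity, mutagenicity, tumor promotion and tumor inhibition results drawn from journals, NCI reports and other sources, expert-reviewed; covers 1985-2011 and is no longer updated.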

Consider `O=[N+]([O-])c1cccc2ccccc12`, for which the carcinogen call is “inactive; negative” (Species: MOUSE, Strain/Sex: B6C3F1/FEMALE, Route: ORAL, Dose: 0, 0.06, 0.12% OF DIET, Dose: 0, 0.06, 0.12% OF DIET); “inactive; negative” (Species: MOUSE, Strain/Sex: B6C3F1/MALE, Route: ORAL, Dose: 0, 0.06, 0.12% OF DIET, Dose: 0, 0.06, 0.12% OF DIET); “inactive; negative” (Species: RAT, Strain/Sex: F344/FEMALE, Route: ORAL, Dose: 0, 0.06, 0.18% OF DIET, Dose: 0, 0.06, 0.18% OF DIET); “inactive; negative” (Species: RAT, Strain/Sex: F344/MALE, Route: ORAL, Dose: 0, 0.06, 0.18% OF DIET, Dose: 0, 0.06, 0.18% OF DIET).

With `Nc1ccc(Sc2ccc(N)cc2)cc1`, the carcinogen call by setting is: (Species: MOUSE, Strain/Sex: B6C3F1/FEMALE, Route: ORAL, Dose: 0, 2500, 5000 PPM IN DIET, Dose: 0, 2500, 5000 PPM IN DIET, Tumor Site: Type of Lesion: LIVER: HEPATOCELLULAR CARCINOMA, THYROID GLAND: FOLLICULAR CELL ADENOMA OR CARCINOMA) “active; positive”; (Species: MOUSE, Strain/Sex: B6C3F1/MALE, Route: ORAL, Dose: 0, 2500, 5000 PPM IN DIET, Dose: 0, 2500, 5000 PPM IN DIET, Tumor Site: Type of Lesion: LIVER: HEPATOCELLULAR ADENOMA OR CARCINOMA, THYROID GLAND: FOLLICULAR CELL ADENOMA OR CARCINOMA) “active; positive”; (Species: RAT, Strain/Sex: F344/FEMALE, Route: ORAL, Dose: 0, 1500, 3000 PPM IN DIET, Dose: 0, 1500, 3000 PPM IN DIET, Tumor Site: Type of Lesion: THYROID GLAND: FOLLICULAR CELL CARCINOMA, UTERUS: ADENOCARCINOMA, NOS) “active; positive”; (Species: RAT, Strain/Sex: F344/MALE, Route: ORAL, Dose: 0, 1500, 3000 PPM IN DIET (68-72 WEEKS), Dose: 0, 1500, 3000 PPM IN DIET (68-72 WEEKS), Tumor Site: Type of Lesion: LIVER: HEPATOCELLULAR ADENOMA OR CARCINOMA, COLON: ADENOCARCINOMA, NOS, THYROID GLAND: FOLLICULAR CELL ADENOMA OR CARCIN, Tumor Site: Type of Lesion: LIVER: HEPATOCELLULAR ADENOMA OR CARCINOMA, COLON: ADENOCARCINOMA, NOS, THYROID GLAND: FOLLICULAR CELL ADENOMA OR CARCIN) “active; positive”.

In the case of `Oc1ccccc1`, the carcinogen call reads like this: (Species: MOUSE, Strain/Sex: B6C3F1/FEMALE, Route: ORAL, Dose: 0, 2500, 5000 PPM IN DIET, Dose: 0, 2500, 5000 PPM IN DIET) “inactive; negative”; (Species: MOUSE, Strain/Sex: B6C3F1/MALE, Route: ORAL, Dose: 0, 2500, 5000 PPM IN DIET, Dose: 0, 2500, 5000 PPM IN DIET) “inactive; negative”; (Species: RAT, Strain/Sex: F344/FEMALE, Route: ORAL, Dose: 0, 2500, 5000 PPM IN DIET, Dose: 0, 2500, 5000 PPM IN DIET) “inactive; negative”; (Species: RAT, Strain/Sex: F344/MALE, Route: ORAL, Dose: 0, 2500, 5000 PPM IN DIET, Dose: 0, 2500, 5000 PPM IN DIET) “inactive; negative”.

As to `Cn1cc(C(=O)O)c(=O)c2ccc(/C=C/c3ccc([N+](=O)[O-])o3)nc21`, the carcinogen call (Species: MOUSE, Strain/Sex: ICR/MALE, Route: ORAL, Dose: 0, 0.012% IN DIET FOR 14 WK (STUDY DURATION: 53 WK), Tumor Site: Type of Lesion: FORESTOMACH: SQUAMOUS CELL CARCINOMA, SQUAMOUS CELL PAPILLOMA, LUNG: PAPILLARY ADENOCARCINOMA) was “active; positive”.

As to `Cc1c(N)nc(C(CC(N)=O)NCC(N)C(N)=O)nc1C(=O)NC(C(=O)NC(C)C(O)C(C)C(=O)NC(C(=O)NCCc1nc(-c2nc(C(=O)NCCC[S+](C)C)cs2)cs1)C(C)O)C(O[C@@H]1O[C@@H](CO)[C@@H](O)[C@H](O)[C@@H]1O[C@H]1O[C@H](CO)[C@@H](O)[C@H](OC(N)=O)[C@@H]1O)c1cnc[nH]1` (stereo partly drawn), the carcinogen call is “active; positive” (Species: RAT, Strain/Sex: SPRAGUE-DAWLEY/FEMALE, Route: SUBCUTANEOUS, Dose: 0, 0.35, 0.7, 1.40, 2.8 MG/KG IN SALINE 1/WK FOR 10 WK THEN 1/2 WK FOR 52 WK OR FOR LIFETIME (STUDY DURATION: 650 D), Dose: 0, 0.35, 0.7, 1.40, 2.8 MG/KG IN SALINE 1/WK FOR 10 WK THEN 1/2 WK FOR 52 WK OR FOR LIFETIME (STUDY DURATION: 650 D), Tumor Site: Type of Lesion: KIDNEY: MALIGNANT OR BENIGN TUMOR, INJECTION SITE: MALIGNANT TUMOR) and “active; positive” (Species: RAT, Strain/Sex: SPRAGUE-DAWLEY/MALE, Route: SUBCUTANEOUS, Dose: 0, 0.35, 0.70, 1.40, 2.8 MG/KG IN SALINE 1/WK FOR 10 WK THEN 1/2 WK FOR 52 WK OR FOR LIFETIME (STUDY DURATION: 650 D), Dose: 0, 0.35, 0.70, 1.40, 2.8 MG/KG IN SALINE 1/WK FOR 10 WK THEN 1/2 WK FOR 52 WK OR FOR LIFETIME (STUDY DURATION: 650 D), Tumor Site: Type of Lesion: KIDNEY: MALIGNANT OR BENIGN TUMOR, INJECTION SITE: MALIGNANT TUMOR).

As to `O=Cc1ccc(CO)o1`, the carcinogen call reads like this: (Species: MOUSE, Strain/Sex: B6C3F1/MALE, Route: INTRAPERITONEAL, Dose: 0, 0.25, 1 UMOL/G BW IN 5 µL DMSO/G BW ONCE, Dose: 0, 0.25, 1 UMOL/G BW IN 5 µL DMSO/G BW ONCE) “inactive; negative”; (Species: MOUSE, Strain/Sex: CD-1/FEMALE, Route: DERMAL, Dose: 0, 50 UMOL/0.1 ML DMSO 2/WK FOR 5 WK FOLLOWED 1 WK LATER BY 0.1 ML ACETONE 2/WK FOR 47 WK (STUDY DURATION: 52 WK)) “inactive; negative”; (Species: Mouse, Strain/Sex: B6C3F1/ Female (50/Group), Route: Oral, Dose: 0, 188, 375, 750 mg/kg by gavage in deionized water for 2 yr, Dose: 0, 188, 375, 750 mg/kg by gavage in deionized water for 2 yr, Tumor Site: Type of Lesion: Liver: hepatocellular adenoma (14/50, 26/49, 26/50, 6/50)) “inactive; negative (ntp reports as some evidence based on increased incidences of hepatoce”; (Species: Mouse, Strain/Sex: B6C3F1/ Male (50/Group), Route: Oral, Dose: 0, 188, 375, 750 mg/kg by gavage in deionized water for 2 yr, Dose: 0, 188, 375, 750 mg/kg by gavage in deionized water for 2 yr) “inactive; negative”; (Species: Rat, Strain/Sex: F344/N / Female (50/Group), Route: Oral, Dose: 0, 188, 375, 750 mg/kg by gavage in deionized water for 2 yr, Dose: 0, 188, 375, 750 mg/kg by gavage in deionized water for 2 yr) “inactive; negative”; (Species: Rat, Strain/Sex: F344/N / Male (50/Group), Route: Oral, Dose: 0, 188, 375, 750 mg/kg by gavage in deionized water for 2 yr, Dose: 0, 188, 375, 750 mg/kg by gavage in deionized water for 2 yr) “inactive; negative”.

Turning to `O=CCCl`, the carcinogen call (Species: MOUSE, Strain/Sex: B6C3F1/MALE, Route: ORAL, Dose: 0, 0.1 G/L DISTILLED DRINKING WATER FOR STUDY DURATION (17 MG/KG/D) (STUDY DURATION: 104 WK), Tumor Site: Type of Lesion: LIVER: HEPATOCELLULAR CARCINOMA, HEPATOCELLULAR ADENOMA) was “active; positive”.

For the molecule `Oc1ccc(Cl)cc1Cc1ccccc1`, the carcinogen call is, setting by setting: (Species: MOUSE, Strain/Sex: B6C3F1/FEMALE, Route: GAVAGE, Dose: 0, 120, 240, 480 MG/KG BW IN CORN OIL 5 D/WK FOR 103 WK (STUDY DURATION: 2 YR), Dose: 0, 120, 240, 480 MG/KG BW IN CORN OIL 5 D/WK FOR 103 WK (STUDY DURATION: 2 YR)) “inactive; negative”; (Species: MOUSE, Strain/Sex: B6C3F1/MALE, Route: GAVAGE, Dose: 0, 120, 240, 480 MG/KG BW IN CORN OIL 5 D/WK FOR 103 WK (STUDY DURATION: 2 YR), Dose: 0, 120, 240, 480 MG/KG BW IN CORN OIL 5 D/WK FOR 103 WK (STUDY DURATION: 2 YR), Tumor Site: Type of Lesion: KIDNEY (RENAL TUBULE): ADENOMA, ADENOMA OR CARCINOMA) “active; positive”; (Species: MOUSE, Strain/Sex: CD-1/FEMALE, Route: DERMAL, Dose: 10 MG IN ACETONE ONCE FOLLOWED BY 0.1, 1, 3 MG 3/WK FOR 51 WK (STUDY DURATION: 52 WK), Dose: 10 MG IN ACETONE ONCE FOLLOWED BY 0.1, 1, 3 MG 3/WK FOR 51 WK (STUDY DURATION: 52 WK)) “inactive; negative”; (Species: MOUSE, Strain/Sex: CD-1/MALE, Route: DERMAL, Dose: 10 MG IN ACETONE ONCE FOLLOWED BY 0.1, 1, 3 MG 3/WK FOR 51 WK (STUDY DURATION: 52 WK), Dose: 10 MG IN ACETONE ONCE FOLLOWED BY 0.1, 1, 3 MG 3/WK FOR 51 WK (STUDY DURATION: 52 WK)) “inactive; negative”; (Species: RAT, Strain/Sex: F344/FEMALE, Route: GAVAGE, Dose: 0, 30, 60, 120 MG/KG BW IN CORN OIL 5 D/WK FOR 103 WK (STUDY DURATION: 105 WK), Dose: 0, 30, 60, 120 MG/KG BW IN CORN OIL 5 D/WK FOR 103 WK (STUDY DURATION: 105 WK), Tumor Site: Type of Lesion: KIDNEY (TRANSITIONAL CELL): CARCINOMA) “equivocal”; (Species: RAT, Strain/Sex: F344/MALE, Route: GAVAGE, Dose: 0, 30, 60, 120 MG/KG BW IN CORN OIL 5 D/WK FOR 103 WK (STUDY DURATION: 2 YR), Dose: 0, 30, 60, 120 MG/KG BW IN CORN OIL 5 D/WK FOR 103 WK (STUDY DURATION: 2 YR)) “inactive; negative”.
